# Values quoted from earlier work as cited in article PMC3691235, “Discovery of a Novel Dual Fungal CYP51/Human 5-Lipoxygenase Inhibitor: Implications for Anti-Fungal Therapy” (PLoS ONE, 2013).
# Columns and labels:
# [1] = target: T1, Homo sapiens CYP51 (HsCYP51) (Homo sapiens, UniProt Q16850); design: method as in PMID 20149798; conditions: ref [40]; read-out: Kd with HsCYP51, previously reported; cited from earlier work
# T1 construct: made in house; host or cells: E. coli
# T1 sequence (Q16850 1-509): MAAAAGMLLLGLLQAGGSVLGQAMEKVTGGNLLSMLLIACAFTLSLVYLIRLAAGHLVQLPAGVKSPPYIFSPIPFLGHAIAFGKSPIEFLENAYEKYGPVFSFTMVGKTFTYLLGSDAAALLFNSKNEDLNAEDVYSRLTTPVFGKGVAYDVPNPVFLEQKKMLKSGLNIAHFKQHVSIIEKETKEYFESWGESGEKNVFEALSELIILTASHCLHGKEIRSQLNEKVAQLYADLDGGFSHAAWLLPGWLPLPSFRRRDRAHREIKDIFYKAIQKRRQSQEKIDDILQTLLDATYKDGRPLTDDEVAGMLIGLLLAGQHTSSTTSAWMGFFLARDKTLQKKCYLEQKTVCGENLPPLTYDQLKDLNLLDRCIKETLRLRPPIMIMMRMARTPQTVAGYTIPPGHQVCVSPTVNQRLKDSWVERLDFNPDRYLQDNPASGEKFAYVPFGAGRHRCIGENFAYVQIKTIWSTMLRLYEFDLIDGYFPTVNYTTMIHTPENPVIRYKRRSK
# [2] = target: T2, Human leukocyte 5-lipoxygenase (Homo sapiens, UniProt P09917); conditions: ref [12], [13]; read-out: 5-LOX IC50; cited from earlier work
# T2 construct: made in house
# T2 sequence (P09917 1-674): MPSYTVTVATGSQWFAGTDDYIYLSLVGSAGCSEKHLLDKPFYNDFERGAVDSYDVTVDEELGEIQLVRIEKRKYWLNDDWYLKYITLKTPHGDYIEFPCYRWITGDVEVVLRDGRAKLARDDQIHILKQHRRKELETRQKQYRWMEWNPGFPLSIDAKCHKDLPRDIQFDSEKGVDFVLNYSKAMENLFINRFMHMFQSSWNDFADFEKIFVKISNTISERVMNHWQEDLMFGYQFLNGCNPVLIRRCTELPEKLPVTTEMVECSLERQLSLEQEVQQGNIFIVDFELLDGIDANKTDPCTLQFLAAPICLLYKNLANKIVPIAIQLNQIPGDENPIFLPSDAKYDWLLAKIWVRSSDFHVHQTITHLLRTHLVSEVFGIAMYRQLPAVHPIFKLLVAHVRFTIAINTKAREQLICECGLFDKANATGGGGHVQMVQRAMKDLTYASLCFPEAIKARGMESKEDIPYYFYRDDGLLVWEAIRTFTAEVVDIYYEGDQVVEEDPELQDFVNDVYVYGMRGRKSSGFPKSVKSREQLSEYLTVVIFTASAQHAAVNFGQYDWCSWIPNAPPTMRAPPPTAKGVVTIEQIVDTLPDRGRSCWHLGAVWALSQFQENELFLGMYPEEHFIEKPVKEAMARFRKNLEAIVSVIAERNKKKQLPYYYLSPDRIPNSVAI
SMILES,Kd [1],IC50 [2]
Clc1ccc(COC(Cn2ccnc2)c2ccc(Cl)cc2Cl)cc1 (centres unmarked) [econazole],< 0.1 µM,–
CCC(C)n1ncn(-c2ccc(N3CCN(c4ccc(OCC5COC(Cn6cncn6)(c6ccc(Cl)cc6Cl)O5)cc4)CC3)cc2)c1=O (centres unmarked) [itraconazole],–,> 50 µM
